Results on five molecules are retold here after publication PMC7023222, “Ionic Liquid Forms of the Antimalarial Lumefantrine in Combination with LFCS Type IIIB Lipid-Based Formulations Preferentially Increase Lipid Solubility, In Vitro Solubilization Behavior and In Vivo Exposure” (Pharmaceutics, 2019).

The procedure of series [1]:
Equilibrium Solubility Studies. […] Each equilibrium solubility experiment was completed in triplicate. Equilibrium solubility was defined when solubility measured across two consecutive days varied less than 5%. The samples were allowed to equilibrate at 37 °C and were vortex-mixed twice a day to ensure the compounds were well dispersed in the LBF. The samples were left to equilibrate for at least 3 days. […] At each time point, samples were then centrifuged at 37 °C (14,800 rpm (21,000× g), Thermo Scientific, Heraeus Pico 21 Centrifuge) and aliquots of 20 mg were taken from the supernatant and dissolved in 1 mL of chloroform: methanol (2:1, v/v). The chloroform: methanol solution was then diluted 20-fold with water: acetonitrile (1:1, v/v). The samples were then assayed by HPLC to determine the concentration of compound in formulation.

Series [2] in a line: In vitro dispersion and digestion test of LBFs (drug solubilization). It counts as physicochemical. The conditions noted are these: for % of drug present in the aqueous phase compared to total drug loading: end of digestion phase (60 min), loading 80% of equilibrium solubility, n = 3. How it is done:
In Vitro Drug Solubilization. […] Drug loading in each formulation was at 80% of the equilibrium solubility of the drug or API-IL in that formulation to maintain a consistent thermodynamic activity across all LBFs. In vitro dispersion and digestion experiments were conducted using a pH-stat apparatus (Metrohm® AG, Herisau, Switzerland), which comprised a Titrando 802 propeller stirrer/804 Ti Stand combination, a glass pH electrode (iUnitrode), and two 800 Dosino dosing units coupled to 10 mL autoburettes (Metrohm® AG). The pH-stat was connected to a PC and operated via Tiamo 2.0 software (Metrohm®). […] The pancreatic enzyme was prepared by mixing 1 g of porcine pancreatin with 5 mL of lipolysis buffer and 20 µL of 5 M NaOH. After mixing, this was then centrifuged at 2880× g at 5 °C for 10 min (Crown Scientific, Eppendorf AG Centrifuge 5804 R, Sydney Australia) and the supernatant used as the enzyme solution. The lipolysis buffer was prepared by dissolving 0.474 g of tris maleate, 0.206 g of CaCl2·H2O, and 8.775 g of NaCl in one liter of distilled water to form a 2 mM tris maleate 1.4 mM CaCl2·H2O 150 mM NaCl buffer; the pH was adjusted to 6.5 using NaOH. The micellar solution was prepared by dissolving 0.783 g of NaTDC and 0.291 g of PC in 500 mL of lipolysis buffer to form a 3 mM NaTDC 0.75 mM PC solution. […] This drop in pH was detected by the pH-stat controller, which then titrated the FA produced using an autoburette that added NaOH to keep the pH at a set point (0.6 M NaOH for MCFs, and 0.2 M NaOH for LCFs). By knowing the quantity of NaOH added and assuming stoichiometric titration, this indirectly quantified the extent of FA production (as a measure of digestion). […] The mass of the drug recovered in the aqueous phase and the pellet phase was then quantified by HPLC [35, 36]. The supernatant and pellet samples were diluted with acetonitrile (1:10 v/v) and then mobile phase (1:10 v/v), and lumefantrine concentrations in the samples determined using HPLC [35, 36, 37, 38].

A short description of series [3]: Supersaturation during in vitro dispersion/digestion testing. The class given is physicochemical. The conditions noted are these: for maximum supersaturation ratio SR^Mdisp (APmax/APdigest): dispersion, time 0 min; for maximum supersaturation ratio SR^Mdig (APmax/APdigest): end of digestion, 60 min. On the procedure:
Supersaturation During In Vitro Testing. The degree of supersaturation of drug concentrations in the aqueous phase during formulation dispersion/digestion was assessed by comparing the measured aqueous phase concentration to equilibrium drug solubility in blank aqueous phase obtained by dispersion and digestion of blank (i.e., non-drug loaded) formulation under identical conditions. Due to the physical state of lumefantrine docusate (i.e., an amorphous semi-solid), the equilibrium solubility assessment was conducted by dissolving 3 mg of IL in 10 µL of ethanol in a microcentrifuge tube and then adding 200 mg of aqueous phase obtained from the blank digestions (n = 3 for each time point for each formulation). The contents were subsequently vortex-mixed for 30 s. […] Supersaturation was assessed at 4 time points during the in vitro dispersion and digestion tests (0 min (end dispersion), and 5, 30, and 60 min (post digestion)) for the Type II-MC, IIIB-MC, IIIB-LC, and IV formulations.
The supersaturation ratio (SR) provides an indication of thermodynamic activity and the likelihood of either drug precipitation, or enhanced absorption from an LBF, where the higher the number, the more supersaturated and therefore the more likely to precipitate during in vitro digestion. The maximum supersaturation ratio (SR^M) provides a measure of the maximum supersaturation pressure that would be generated by digestion of an LBF, assuming no precipitation and is calculated from the following:(1) SR^M=APmax/APdigest where APmax is the maximum possible aqueous phase concentration of drug during the in vitro dispersion and digestion test (i.e., in the absence of any precipitation), and APdigest is the equilibrium solubility of the drug in blank aqueous phase (i.e., where the aqueous phase was obtained from a digestion of blank LBF). Williams et al. have previously proposed that sustainable supersaturation most commonly occurs when SR^M < 3, and that exceeding this threshold increases the likelihood of drug precipitation during in vitro dispersion and digestion tests. Only the Type II-MC, IIIB-MC, IIIB-LC, and IV formulations were evaluated as these were the four formulations chosen to proceed to the in vivo bioavailability studies. The figures also depict APmax, as well as the drug solubility in the aqueous colloidal phase of the blank LBF (APdigest). […] This was most apparent at early time points for the Type II-MCF formulation where SR^M was ~20 and at later time points post digestion for the Type IIIB-MCF where SR^M was >40. […] Similarly, the SR^M for the Type IIIB-MCF at the end of digestion was the highest, but majority of lumefantrine docusate remained solubilized at 60 min (69% solubilized).

A short description of series [4]: Oral bioavailability study in rats. The class given is in vivo, male Sprague-Dawley rats.
Experimental: Oral Bioavailability Studies. […] Experiments were conducted in fasted male Sprague-Dawley rats (240–320 g). The day prior to the study, the rats were anaesthetized with isoflurane and the right carotid artery was surgically cannulated with polyethylene tubing to facilitate blood collection (procedure described previously) [40]. Animals were allowed to recover overnight and were fasted up to 12 h prior to and 8 h after dose administration, with water provided ad libitum. The rats were fed 8 h after dosing.
Animals were then administered a further 0.5 mL of water. […] The aqueous suspension comprised 0.5% w/v sodium carboxymethylcellulose, 0.4% w/v Tween 80, and 0.9% NaCl in water.
Blood samples were collected via the carotid artery cannula at pre-dose, 0.5, 1, 2, 3, 4, 6, 8, 10, and 24 h after oral administration of the formulations. Blood samples were centrifuged at 6700× g for 5 min and plasma was collected and stored at −20 °C until assayed by LC-MS. Statistically significant differences between formulations were determined by one-way analysis of variance (ANOVA) at a test significance level of α ≤ 0.05, followed by a Tukey’s multiple comparisons test.
Plasma Sample Preparation and Analysis. Lumefantrine concentrations in rat plasma were assayed via LC-MS using a modification of a previously published assay for lumefantrine [41]. […] Plasma samples or calibration standards (50 µL) were spiked with 10 µL of internal standard (halofantrine hydrochloride, 1000 ng/mL in 1:1 v/v water: acetonitrile) followed by vortex mixing for 10 s. To precipitate plasma proteins, acetonitrile (200 µL) was added and samples vortex mixed for 1 min. The samples were then allowed to stand at room temperature for 30 min. After centrifugation at 10,000× g for 10 min at room temperature, 150 µL of supernatant was transferred into vials for analysis.
Lumefantrine plasma samples were analyzed using a Shimadzu LCMS-8050 system (Shimadzu Scientific Instruments, Kyoto, Japan) consisting of a CBM-20A system controller, a DGU-20A5R degassing unit, two Nexera X2 LC-30 AD liquid chromatograph pumps, a Nexera X2 SIL-30AC autosampler, a CTO-20A column oven (held at 40 °C), and a triple quadrupole mass spectrometer with an electrospray ionization (ESI) interface. Data acquisition and processing was performed using LC-MS Solutions software (Shimadzu, Kyoto, Japan). The desolvation line (DL) and heat block were kept at 250 °C and 400 °C, respectively. The nebulizing gas flow and drying gas flow rates were 3.0 L/min and 10.0 L/min, respectively. Mobile phase A was Milli-Q water containing 0.1% w/v formic acid, and mobile phase B was acetonitrile containing 0.1% w/v formic acid. […] Mobile phase B was then held at 80% for 0.5 min, followed by a linear decrease to 30% over the next 0.5 min after which conditions were held for another 0.5 min.
On the set-up of series [5]: method as in PMID 30376336. The conditions noted are these: cited from earlier work.
The conditions of series [6]: cited from earlier work.
Details of series [7]: method as in PMID 23531442. The conditions noted are these: cited from earlier work.

Structures are written as SMILES. “And” between values parts separate entries of the source, which are not always exact repeats. Identical values can stand only once. Like-named read-outs stand apart in the source and are kept apart here.

Regarding `CCCCC(CC)COC(=O)CC(C(=O)OCC(CC)CCCC)S(=O)(=O)O.CCCCN(CCCC)CC(O)c1cc(Cl)cc2c1-c1ccc(Cl)cc1C2=Cc1ccc(Cl)cc1` (racemic) [lumefantrine docusate], in series [1], the “miscibility in the Type IV formulation” value is reported as “miscible”. In addition, in series [1], the “solubility in LBF, fold higher than lumefantrine free base” value is on record as 2- to 80 fold. Besides, the “solubility in the Type IV formulation (proportions)” value in series [1] is > 1:1 w/w. Besides, the figures for the “% of drug present in the aqueous phase compared to total drug loading” value in series [2] (Type IIIB-LCF) and in series [2] (Type IIIB-MCF) were 89% and 69%, respectively. Besides, the “drug concentration in the aqueous phase, fold higher than the equivalent lumefantrine free base formulations” value in series [2] (after dispersion and digestion, range over all LBFs) is 2-to-55 fold. The “maximum supersaturation ratio SR^Mdisp (APmax/APdigest)” value is ~ 20 and 19.9 in series [3] (Type II-MCF); 3.6 in series [3] (Type IIIB-LCF); 5.7 in series [3] (Type IIIB-MCF); 6.3 in series [3] (Type IV). The “supersaturation ratio SR (measured aqueous phase concentration / equilibrium solubility in blank aqueous phase)” value in series [3] (Type II-MCF, during dispersion) is reported as 5.5. For the same molecule, the “maximum supersaturation ratio SR^Mdig (APmax/APdigest)” value in series [3] (Type II-MCF) was 8.0; in series [3] (Type IIIB-LCF), 7.9; in series [3] (Type IIIB-MCF) it was > 40 and 43.2; in series [3] (Type IV) it was 8.1. Moreover, the “supersaturation throughout the in vitro test” value in series [3] (Type IV formulation) is given as “no supersaturation was evident”. Besides, the “maximum supersaturation ratio SR^M” value in series [3] (in all cases: Type II-MC, IIIB-MC, IIIB-LC and IV formulations) is on record as “higher than 3”. In addition, the “exposure, fold enhanced when compared to the free base” value in series [4] (IL in LBF vs free base suspensions 85 mg/kg) is “up to 50 fold”. Further, the “increase in exposure after oral administration compared to aqueous suspension of the free base” value in series [4] (Type IIIB LC formulation 65 mg/kg vs aqueous suspension 85 mg/kg) is ~ 50 fold. Further, the “increase in exposure after oral administration compared to lipid suspension of the free base” value in series [4] (Type IIIB LC formulation 65 mg/kg vs free base suspension in Type IIIB-LCF 85 mg/kg) is recorded as ~ 10 fold. For the same molecule, in series [4] (Type IIIB-LCF 65 mg/kg, one-way ANOVA, p < 0.05, n = 4), the “systemic exposure (AUC 0 to 24 h), statistical comparison” value is reported as “significantly higher exposure than all other formulations tested”. In addition, the “systemic exposure (AUC 0 to 24 h), statistical comparison with both free base suspensions” value in series [4] (Type IIIB-MCF 65 mg/kg, one-way ANOVA, p < 0.05, n = 4) was “significantly higher exposure”.

In the case of `CCCCC(CC)COC(=O)CC(C(=O)OCC(CC)CCCC)S(=O)(=O)O.COc1cc2nccc(Oc3ccc(NC(=O)C4(C(=O)Nc5ccc(F)cc5)CC4)cc3)c2cc1OC` [Cabozantinib docusate, cabozantinib docusate], the figures for the “bioavailability, fold enhanced compared to an aqueous suspension of cabozantinib free base” value in series [5] (long-chain SEDDS) and in series [5] (medium-chain SEDDS) were 1.8 fold and 1.5 fold, respectively.

On to `C(=C\c1ccccc1)/CN1CCN(C(c2ccccc2)c2ccccc2)CC1.CCCCCCCCCCOS(=O)(=O)O` [cinnarizine decyl sulfate], for which the “exposure, fold higher than equivalent dose of cinnarizine free base as a suspension in the same SEDDS formulation” value in series [6] (rats, SEDDS formulation) was ~ 2 fold.

`CCC(C)n1ncn(-c2ccc(N3CCN(c4ccc(OCC5COC(Cn6cncn6)(c6ccc(Cl)cc6Cl)O5)cc4)CC3)cc2)c1=O.CCCCC(CC)COC(=O)CC(C(=O)OCC(CC)CCCC)S(=O)(=O)O` (stereo not shown) [itraconazole docusate]: in series [6] (rat, in vivo), the “exposure compared with the commercial formulation Sporanox” value is on record as “greater exposure” and the “exposure, fold higher than an itraconazole suspension of equal dose” value is recorded as ~ 20 fold.

As for `CCCCN(CCCC)CC(O)c1cc(Cl)cc2c1-c1ccc(Cl)cc1/C2=C/c1ccc(Cl)cc1` (stereo not shown) [lumefantrine], the oral bioavailability in series [7] was 4–11%.
